Test results published in ChEMBL document CHEMBL1130981, “DNA gyrase inhibitory activity of ellagic acid derivatives” (Bioorg Med Chem Lett, 1998).

Target: DNA gyrase (Escherichia coli, UniProt P0AES4+P0AES6)
Assay: Inhibition of DNA gyrase supercoiling in Escherichia coli.
Type: protein-complex assay

| IC50 | Structure (SMILES) |
| --- | --- |
| > 2190 µM | O=c1oc2c(O)c(O)ccc2c2ccccc12 |
| > 1920 µM | Cc1cc(O)c(O)c2oc(=O)c3ccc(F)cc3c12 |
| 942 µM | O=c1oc2c(Cl)c(Cl)ccc2c2cc(O)c(O)cc12 |
| 500 µM | O=c1oc2c(O)c(O)ccc2c2cc(O)c(O)cc12 |
| 328 µM | O=c1oc2c(O)c(O)ccc2c2ccc(O)cc12 |
| 511 µM | Cc1cc(O)c(O)c2oc(=O)c3cc(O)c(O)cc3c12 |
| 447 µM | O=c1oc2c(O)c(O)ccc2c2cc(F)ccc12 |
| 53.2 µM | O=C1c2cc(O)c(O)cc2-c2cc(O)c(O)cc21 |
| 156 µM | O=c1oc2c(O)c(O)cc3c(=O)oc4c(O)c(O)cc1c4c23 [ELLAGIC ACID] |

Continued, compound first:

| Structure (SMILES) | IC50 |
| --- | --- |
| O=c1oc2c(F)c(F)ccc2c2cc(O)c(O)cc12 | 151 µM |
| O=c1oc2ccccc2c2ccccc12 | > 2550 µM |
| O=c1oc2cc(O)c(O)cc2c2cc(O)c(O)cc12 | 307 µM |
| O=c1oc2cc(O)c(O)cc2c2cc(F)ccc12 | 1500 µM |
| ONC1c2cc(O)c(O)cc2-c2cc(O)c(O)cc21 | 7.66 µM |
| O=c1oc2ccccc2c2cc(O)c(O)cc12 | > 2190 µM |
